{"source": "patent US9346812B2", "about": "“Substituted pyrrolopyrimidine compounds, compositions thereof, and methods of treatment therewith” (Signal Pharmaceutical LLC, priority 2013, dated 2016)", "data": [{"system": "CAL51 cell proliferation", "assay": "Cell Titer Glo Proliferation Assay (CAL51)", "assay_type": "cell-based, human", "details": "Homo sapiens, CAL-51; CAL51 cell proliferation, 72 h, Cell Titer Glo luminescence; read-out: Act. Level", "protocol": "Cell Titer Glo Proliferation Assay. Triple negative breast cancer cell line CAL51 was purchased from DSMZ. […] Allcell lines were maintained in growth media consisting of 90% high glucose Dulbecco's Modified Eagle Medium or RPMI1640 (Invitrogen), 10% fetal bovine serum (Hyclone), and 2 mM L-glutamine (Invitrogen). […] After overnight culture, compound stock (30 mM) was diluted serially in DMSO, further diluted in growth media, and was added to each well as a 10× concentrated solution in a volume of 11 μL, mixed, and allowed to incubate with cells. The compound vehicle (DMSO) was maintained at a final concentration of 0.2% in all wells. After 72 h, 100 μL of Cell Titer Glo solution (Promega) was added to each well of the 96-well plate. The plate was placed on a shaker for 2 minutes. After 10 minutes incubation, the luminescence signal was detected with Envision microplate reader (Perkin Elmer).", "units": {"IC50": "nM"}, "values": [{"smiles": "COc1nc(Nc2ccc(C(=O)N(C)C)cc2Cl)nc2[nH]cc(-c3ccncc3)c12", "note": "[Example 157, 3-chloro-4-(4-methoxy-5-(pyridin-4-yl)-7H-pyrrolo[2,3-d]pyrimidin-2-ylamino)-N,N-dimethylbenzamide]", "IC50": "100 to 400"}, {"smiles": "CNC(=O)c1ccc(Nc2nc(OC3CCCC3)c3c(-c4cccc(S(C)(=O)=O)c4)c[nH]c3n2)c(OC)c1", "note": "[Example 63, 4-(4-(cyclopentyloxy)-5-(3-(methyl-sulfonyl)phenyl)-7H-pyrrolo[2,3-d]pyrimidin-2-ylamino)-3-methoxy-N-methylbenzamide]", "IC50": "< 100"}, {"smiles": "CNC(=O)c1ccc(Nc2nc(OC3CCCC3)c3c(-c4ccc5nonc5c4)c[nH]c3n2)c(OC)c1", "note": "[Example 260, 4-(5-(benzo[c][1,2,5]oxadiazol-5-yl)-4-(cyclopentyloxy)-7H-pyrrolo[2,3-d]pyrimidin-2-ylamino)-3-methoxy-N-methylbenzamide]", "IC50": "1000 to 10000"}, {"smiles": "CNC(=O)c1ccc(Nc2nc(O[C@H]3CC[C@](C)(O)CC3)c3c(-c4ccc5nc(C)oc5c4)c[nH]c3n2)c(OC)c1", "note": "[Example 205, 4-(4-((1r,4r)-4-hydroxy-4-methylcyclohexyloxy)-5-(2-methylbenzo[d]oxazol-6-yl)-7H-pyrrolo[2,3-d]pyrimidin-2-ylamino)-3-methoxy-N-methylbenzamide]", "IC50": "< 100"}, {"smiles": "CNC(=O)c1ccc(Nc2nc(OC3CCCC3)c3c(-c4ccc(NS(C)(=O)=O)cc4)c[nH]c3n2)c(OC)c1", "note": "[Example 32, 4-(4-(cyclopentyloxy)-5-(4-(methylsulfonamido)phenyl)-7H-pyrrolo[2,3-d]pyrimidin-2-ylamino)-3-methoxy-N-methylbenzamide]", "IC50": "< 100"}, {"smiles": "CNC(=O)c1ccc(Nc2nc(OC)c3c(-c4cnn(C)c4)c[nH]c3n2)c(OC)c1", "note": "[Example 177, 3-methoxy-4-(4-methoxy-5-(1-methyl-1H-pyrazol-4-yl)-7H-pyrrolo [2,3-d]pyrimidin-2-ylamino)-N-methylbenzamide]", "IC50": "100 to 400"}, {"smiles": "CNC(=O)c1ccc(Nc2nc(OC3CCOCC3)c3c(-c4ccc(S(C)(=O)=O)cc4)c[nH]c3n2)c(C)c1", "note": "[Example 158, N,3-dimethyl-4-(5-(4-(methylsulfonyl)phenyl)-4-(tetrahydro-2H-pyran-4-yloxy)-7H-pyrrolo[2,3-d]pyrimidin-2-ylamino)benzamide]", "IC50": "400 to 1000"}, {"smiles": "COc1cc(C(=O)N2CC2(C)C)ccc1Nc1nc(OC2CCCC2)c2c(-c3ccc4nc(C)oc4c3)c[nH]c2n1", "note": "[Example 312, (4-(4-(cyclopentyloxy)-5-(2-methylbenzo[d]oxazol-6-yl)-7H-pyrrolo[2,3-d]pyrimidin-2-ylamino)-3-methoxyphenyl)(2,2-dimethylaziridin-1-yl)methanone]", "IC50": "400 to 1000"}, {"smiles": "COc1cc(C(=O)NC[C@H]2CCCO2)ccc1Nc1nc(OC2CCCC2)c2c(-c3ccc4nc(C)oc4c3)c[nH]c2n1", "note": "[Example 242, (R)-4-(4-(cyclopentyloxy)-5-(2-methylbenzo[d]oxazol-6-yl)-7H-pyrrolo[2,3-d]pyrimidin-2-ylamino)-3-methoxy-N-((tetrahydrofuran-2-yl)methyl)benzamide]", "IC50": "100 to 400"}, {"smiles": "CNC(=O)c1ccc(Nc2nc(OC3CCOCC3)c3c(-c4cnccn4)c[nH]c3n2)c(OC)c1", "note": "[Example 186, 3-methoxy-N-methyl-4-(5-(pyrazin-2-yl)-4-(tetrahydro-2H-pyran-4-yloxy)-7H-pyrrolo[2,3-d]pyrimidin-2-ylamino) benzamide]", "IC50": "100 to 400"}, {"smiles": "CNC(=O)c1ccc(Nc2nc(OC3CCCC3)c3c(-c4ccc5c(C)noc5c4)c[nH]c3n2)c(OC)c1", "note": "[Example 279, 4-(4-(cyclopentyloxy)-5-(3-methylbenzo[d]isoxazol-6-yl)-7H-pyrrolo[2,3-d]pyrimidin-2-ylamino)-3-methoxy-N-methylbenzamide]", "IC50": "< 100"}, {"smiles": "Cc1nc2ccc(-c3c[nH]c4nc(Nc5ccnn5C)nc(OC5CCCC5)c34)cc2o1", "note": "[Example 295, 4-(cyclopentyloxy)-N-(1-methyl-1H-pyrazol-5-yl)-5-(2-methylbenzo[d]oxazol-6-yl)-7H-pyrrolo[2,3-d]pyrimidin-2-amine]", "IC50": "100 to 400"}, {"smiles": "COc1cc(C(=O)N(C)CC2(C)COC2)ccc1Nc1nc(OC2CCCC2)c2c(-c3ccc4nc(C)oc4c3)c[nH]c2n1", "note": "[Example 271, 4-(4-(cyclopentyloxy)-5-(2-methylbenzo[d]oxazol-6-yl)-7H-pyrrolo[2,3-d]pyrimidin-2-ylamino)-3-methoxy-N-methyl-N-((3-methyloxetan-3-yl)methyl)benzamide]", "IC50": "< 100"}, {"smiles": "CNC(=O)c1ccc(-c2c[nH]c3nc(Nc4ccnn4C)nc(OC4CCOCC4)c23)cc1", "note": "[Example 317, N-methyl-4-(2-(1-methyl-1H-pyrazol-5-ylamino)-4-(tetrahydro-2H-pyran-4-yloxy)-7H-pyrrolo [2,3-d]pyrimidin-5-yl)benzamide]", "IC50": "400 to 1000"}, {"smiles": "COc1cc(C(=O)NC2COC2)ccc1Nc1nc(OC2CCCC2)c2c(-c3ccc4nc(C)oc4c3)c[nH]c2n1", "note": "[Example 255, 4-(4-(cyclopentyloxy)-5-(2-methylbenzo[d]oxazol-6-yl)-7H-pyrrolo[2,3-d]pyrimidin-2-ylamino)-3-methoxy-N-(oxetan-3-yl)benzamide]", "IC50": "100 to 400"}, {"smiles": "COc1cc(C(=O)N(C)CC(N)=O)ccc1Nc1nc(OC2CCCC2)c2c(-c3ccc4nc(C)oc4c3)c[nH]c2n1", "note": "[Example 268, N-(2-amino-2-oxoethyl)-4-(4-(cyclopentyloxy)-5-(2-methylbenzo[d]oxazol-6-yl)-7H-pyrrolo[2,3-d]pyrimidin-2-ylamino)-3-methoxy-N-methylbenzamide]", "IC50": "< 100"}, {"smiles": "CNC(=O)c1ccc(OC)c(Nc2nc(OC(C)C)c3c(-c4ccc5nc(C)oc5c4)c[nH]c3n2)c1", "note": "[Example 180, 3-(4-isopropoxy-5-(2-methylbenzo[d]oxazol-6-yl)-7H-pyrrolo[2,3-d]pyrimidin-2-ylamino)-4-methoxy-N-methylbenzamide]", "IC50": "100 to 400"}, {"smiles": "CNC(=O)c1ccc(Nc2nc(OC3CCOCC3)c3c(-c4ccnnc4)c[nH]c3n2)c(OC)c1", "note": "[Example 269, 3-methoxy-N-methyl-4-(5-(pyridazin-4-yl)-4-(tetrahydro-2H-pyran-4-yloxy)-7H-pyrrolo[2,3-d]pyrimidin-2-ylamino)benzamide]", "IC50": "400 to 1000"}, {"smiles": "CNC(=O)c1ccc(Nc2nc(OC3CCOCC3)c3c(-c4ccc5nc(C)oc5c4)c[nH]c3n2)c(OC)n1", "note": "[Example 183, 6-methoxy-N-methyl-5-(5-(2-methylbenzo[d]oxazol-6-yl)-4-(tetrahydro-2H-pyran-4-yloxy)-7H-pyrrolo[2,3-d]pyrimidin-2-yalmino)picolinamide]", "IC50": "100 to 400"}, {"smiles": "CNC(=O)c1ccc(Nc2nc(OC(C)C)c3c(-c4ccn(C)n4)c[nH]c3n2)c(OC)c1", "note": "[Example 220, 4-(4-isopropoxy-5-(1-methyl-1H-pyrazol-3-yl)-7H-pyrrolo[2,3-d]pyrimidin-2-ylamino)-3-methoxy-N-methylbenzamide]", "IC50": "1000 to 10000"}, {"smiles": "CNC(=O)c1ccc(Nc2nc(OC(C)C)c3c(-c4ccnc(N)c4)c[nH]c3n2)c(OC)c1", "note": "[Example 194, 4-(5-(2-aminopyridin-4-yl)-4-isopropoxy-7H-pyrrolo[2,3-d]pyrimidin-2-ylamino)-3-methoxy-N-methylbenzamide]", "IC50": "< 100"}, {"smiles": "Cc1cc(C(=O)N(C)C)ccc1Nc1nc(OC2CCOCC2)c2c(-c3nnco3)c[nH]c2n1", "note": "[Example 111, 4-(5-(1,3,4-oxadiazol-2-yl)-4-(tetrahydro-2H-pyran-4-yloxy)-7H-pyrrolo[2,3-d]pyrimidin-2-ylamino)-N,N,3-trimethylbenzamide]", "IC50": "1000 to 10000"}]}]}
